This is an account of results in patent US5216001A, “Indole derivatives” (H. Lunbeck A/S, priority 1990, dated 1993).

One assay has as its target T1, DA D-2 (Rattus norvegicus, UniProt P61169).
T1 construct: Male Wistar rats (Mol:Wist) weighing about 200 g at the time of operation are used; from tissue; host or cells: living male Wistar (Mol:Wist) rats with unilateral 6-OHDA lesions (in vivo, endogenous receptor)
The assay can be described thus: antagonism of pergolide-induced circling behaviour in rats with unilateral 6-OHDA lesions. In kind it is in vivo. The conditions noted are these: sc, read-out: Pergolide rot. inhibition ED50, 2h (sc), 6-OHDA lesions, s.c., 2 h before pergolide. As to the method: ANTAGONISM OF PERGOLIDE-INDUCED CIRCLING BEHAVIOUR IN RATS WITH UNILATERAL 6-OHDA LESIONS
Dopamine (DA) D-2 agonists induce contralateral circling behaviour in rats with 6-OHDA lesions. Pergolide-induced circling is antagonized by DA D-2 antagonists.
Male Wistar rats (Mol:Wist) weighing about 200 g at the time of operation are used. Unilateral lesions are made in pentobarbital anaesthetized rats by injection of 6-OHDA. HCl 9.7 μg/μl (equivalent to 8 μg free base) per 4 min. into the rostral tip of the substantia nigra. The saline solution contains ascorbic acid 0.2 mg/ml, is bubbled with N2 and is kept ice-cold. The experiments are done when stable contralateral circling responses to pergolide (0.05 μmol/kg, s.c.) are obtained. The circling response is measured in rotometer bowls. Only rats showing more than 400 complete turns in 2 hrs control session are used. Dose-response curves are obtained by alternating test and control sessions on a weekly basis. The antagonists are injected s.c. 2 hrs before the agonist. The effect of individual doses of test drugs is calculated as per cent of the mean effect of control sessions one week before and one week after the test session for each rat. ED50 values are calculated by log-probit analysis. Four to eight rats are used at each dosage.

The target in assay [1] is T2, serotonin S2 (5-HT2) receptors (Rattus norvegicus, UniProt P14842).
T2 construct: cortical tissue is dissected and weighed; from tissue; host or cells: cerebral cortex membranes of male Wistar (Mol:Wist) rats
T2 sequence (P14842 whole entry): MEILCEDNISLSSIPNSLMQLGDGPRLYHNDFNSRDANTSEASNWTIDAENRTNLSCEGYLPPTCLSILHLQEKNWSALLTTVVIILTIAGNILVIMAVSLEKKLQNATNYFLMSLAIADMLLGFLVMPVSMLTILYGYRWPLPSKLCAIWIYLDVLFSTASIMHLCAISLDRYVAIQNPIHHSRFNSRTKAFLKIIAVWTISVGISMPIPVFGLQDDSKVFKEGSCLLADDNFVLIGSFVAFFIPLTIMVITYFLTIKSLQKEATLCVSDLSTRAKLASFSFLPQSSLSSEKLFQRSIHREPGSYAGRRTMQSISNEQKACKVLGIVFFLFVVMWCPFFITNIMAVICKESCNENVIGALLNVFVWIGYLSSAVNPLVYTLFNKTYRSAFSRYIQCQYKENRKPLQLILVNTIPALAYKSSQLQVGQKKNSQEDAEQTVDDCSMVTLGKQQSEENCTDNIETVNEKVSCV
The assay is described as follows: inhibition of 3H-ketanserin binding to serotonin S2 (5-HT2) receptors in rat cortex in vitro. To be noted: 3H-ketanserin 0.5 nM, rat cortex membranes, read-out: Binding IC50, 3H Ket.

Assay [2] concerns the target T3, 5-HT2 (Rattus norvegicus, UniProt P14842).
T3 construct: Four rats, male Wistar (Mol:Wist) SPF rats weighing 170-240 g; from tissue; host or cells: living male Wistar (Mol:Wist) SPF rats (in vivo, endogenous receptor)
The assay can be described thus: quipazine inhibition (quipazine-induced head twitches in rats). It counts as in vivo. As to the method: Quipazine is a 5-HT2 agonist, which induces head twitches in rats. The test is a test for 5-HT2 -antagonistic effect testing the ability to inhibit head twitches. The method and test results for some reference substances are published by Arnt et al. (Drug Development Research, 16, 59-70, 1989).
Test substance is injected s.c. 2 hrs before or p.o. 24 hrs before quipazine administration (6.8 mg/kg, s.c., dimaleate). Four rats, male Wistar (Mol:Wist) SPF rats weighing 170-240 g, are used at each dose level. A control group is included each test day. By repeated testing (2, 24 hrs) the control group is the same, however. After quipazine administration the rats are individually placed in the observation cages and head twitches are counted in an observation period of 30-40 min. after injection of quipazine.
Total number of head twitches in each group is calculated and the result for each dose is expressed as per cent of the response in the control group. ED50 values are calculated by log-probit analysis. The test must be repeated if the average number of head twitches is lower than 9 in the control group.

The target in another assay is α1 adrenoceptors. The assay is described as follows: inhibition of 3H-prazosin binding to α1 adrenoceptors in rat brain in vitro. The conditions noted are these: 3H-prazosin 0.25 nM, rat brain membranes, read-out: Binding IC50, 3H Praz. As to the method:
INHIBITION OF ^3 H-PRAZOSIN BINDING TO α1 ADRENOCEPTORS IN RAT BRAIN IN VITRO
Method and results in Hyttel and Larsen, J. Neurochem, 44, 1615-1622, 1985; Skarsfeldt and Hyttel, Eur. J. Pharmacol. 125, 323-340, 1986.
Male Wistar (Mol:Wist) rats (125-200 g) are sacrificed and brain tissue is dissected and weighed. The tissue is homogenized (Ultra Turrax, 10 sec.) in 10 ml of ice-cold […] Tris buffer pH 7.7 (at 25° C.). The homogenate is centrifuged twice at 20,000 g for 10 min. at 4° C. with rehomogenization of the pellet in 10 ml ice-cold buffer. The final pellet is homogenized in 400 vol (w/v) ice-cold buffer.
Incubation tubes kept on ice in triplicate receive 100 μl of drug solution in water (or water for total binding) and 4000 μl of tissue suspension (final tissue content corresponds to 10 mg original tissue). The binding experiment is initiated by addition of 100 μl of ^3 H-Prazosin (final concentration 0.25 nM) and by placing the tubes in a 25° C. water bath. After incubation for 20 min. the samples are filtered under vacuum (0-50 mBar) through Whatman GF/F filters (25 mm). The tubes are rinsed with 5 ml ice-cold buffer which then are poured on the filters. Thereafter, the filters are washed with 5 ml of buffer. The filters are placed in counting vials and 4 ml of appropriate scintillation fluid (e.g. Picofluor™15) are added. After shaking for 1 h and storage 2 hrs in the dark the content of radioactivity is determined by liquid scintillation counting. Specific binding is obtained by subtracting the nonspecific binding in the presence of 1 μM of Prazosin.
(§1) For determination of the inhibition of binding five concentrations of drugs covering 3 decades are used.
The measured cpm are plotted against drug concentration on semilogarithmic paper and the best fitting S-shaped curve is drawn. The IC50 value is determined as the concentration at which the binding is 50% of the total binding in control samples minus the nonspecific binding in the presence of 1 μM of Prazosin. ^3 H-Prazosin=[furoyl-5-^3 H]-Prazosin from New England Nuclear, specific activity approximately 20 Ci/mmol.

In a further assay the target is T4, dopamine D-2 receptors (Rattus norvegicus, UniProt P61169).
T4 construct: striatal tissue is dissected and weighed; from tissue; host or cells: corpus striatum membranes of male Wistar rats
T4 sequence (P61169 whole entry): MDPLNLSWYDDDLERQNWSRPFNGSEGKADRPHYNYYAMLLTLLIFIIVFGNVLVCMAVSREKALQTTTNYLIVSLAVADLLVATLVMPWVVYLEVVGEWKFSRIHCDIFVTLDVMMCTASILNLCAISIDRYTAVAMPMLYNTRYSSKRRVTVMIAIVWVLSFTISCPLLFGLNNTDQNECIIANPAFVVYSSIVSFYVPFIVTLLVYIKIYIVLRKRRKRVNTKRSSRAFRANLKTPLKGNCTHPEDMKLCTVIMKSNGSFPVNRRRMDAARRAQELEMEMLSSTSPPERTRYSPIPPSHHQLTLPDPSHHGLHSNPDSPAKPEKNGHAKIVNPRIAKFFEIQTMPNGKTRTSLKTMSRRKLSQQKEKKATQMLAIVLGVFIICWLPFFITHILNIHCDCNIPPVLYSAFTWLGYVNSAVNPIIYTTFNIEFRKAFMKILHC
The assay is described as follows: inhibition of 3H-spiperone binding to dopamine D-2 receptors in rat corpus striatum in vitro. The conditions noted are these: 3H-spiperone 0.5 nM, rat corpus striatum membranes, in vitro; read-out: Binding IC50, 3H Spi. As to the method:
INHIBITION OF ^3 H-SPIPERONE BINDING TO DOPAMINE D-2 RECEPTORS IN RAT CORPUS STRIATUM IN VITRO
By this method the inhibition by drugs of the binding of ^3 H-spiperone (0.5 nM) to dopamine D-2 receptors in membranes from rat corpus striatum is determined in vitro. Method and results in Hyttel and Larsen, J. Neurochem, 44, 1615-1622, 1985).
Male Wistar (Mol:Wistar) rats (125-250 g) are sacrificed and striatal tissue is dissected and weighed. The tissue is homogenized (Ultra Turrax, 10 sec.) in 10 ml of ice-cold 50 mM K-phosphate buffer pH 7.4 (at 25° C.). The homogenate is centrifuged twice at 20,000 g for 10 min. at 4° C. with rehomogenization of the pellet in 10 ml ice-cold buffer. The final pellet is homogenized in 1300 vol (w/v) ice-cold buffer.
Incubation tubes kept on ice in triplicate receive 100 μl of drug solution in water (or water for total binding) and 4000 μl of tissue suspension (final tissue content corresponds to 3.08 mg original tissue). The binding experimental is initiated by addition of 100 μl of ^3 H-spiperone (final concentration 0.5 nM) and by placing the tubes in a 37° C. water bath. After incubation for 10 min. the samples are filtered under vacuum (0-50 mBar) through Whatman GF/F filters (25 mm). The tubes are rinsed with 5 ml ice-cold buffer which are then poured on the filters. Thereafter, the filters are washed with 2×5 ml of buffer. The filters are placed in counting vials and 4 ml of appropriate scintillation fluid (e.g. Picofluor ™15) are added. After shaking for 1 h and storage 2 hrs in the dark the content of radioactivity is determined by liquid scintillation counting. Specific binding is obtained by subtracting the nonspecific binding in the presence of 10 μM of 6,7-ADTN.
as §1
England, specific activity 15-25 Ci/mmol.

In assay [3] the target is T3, 5-HT2. The assay is described as follows: quipazine inhibition (quipazine-induced head twitches in rats). In kind it is in vivo. To be noted: sc, s.c. (marked in cell), 24 h before quipazine, read-out: Quipazine inhibition ED50, 24h (sc).
The conditions of assay [4]: Bersani et al. 1990; cited from earlier work.
For assay [5] the following is noted: Janssen 1988; cited from earlier work.
For assay [6] the following is noted: Klieser and Strauss 1988; cited from earlier work.
The conditions of assay [7]: animal test, Colpart et al. 1985; cited from earlier work.
The mark [8] stands for this setting: sc, 2 h, read-out: Quipazine inhibition ED50, 2h (sc).
[9] abbreviates: sc, read-out: Quipazine inhibition ED50, 2h (sc), s.c., 2 h before quipazine.

Each structure is given as a SMILES string. Where two headings read alike, the source gives them in different places. Some results are limits rather than exact numbers.

T3 sequence (P14842 whole entry): as the sequence (P14842 whole entry) above
T1 sequence (P61169 whole entry): as the sequence (P61169 whole entry) above

For orientation: ED50 means the midpoint of the dose-response relation. In general, IC50 refers to the point on the concentration scale where inhibition reaches its midpoint. Regarding `O=C1NCCN1CCN1CCC(c2cn(-c3ccc(F)cc3)c3cc(Cl)ccc23)CC1` [Compound 4b, 6-chloro-1-(4-fluorophenyl)-3-[1-[2-(2-imidazolidinon-1yl)ethyl]-4-piperidyl]-1H-indole], the ED50 at DA D-2 was more than 23 µmol/kg; at 5-HT2 [2] (setting [8]) it was 0.06 µmol/kg. Moreover, the IC50 in assay [1] was found to be 0.0014 µM.
For `O=C1NCCN1CCN1CCC(c2cn(-c3ccc(F)cc3)c3cc(Cl)c(Cl)cc23)CC1` [Compound 5f, 5,6-dichloro-1-(4-fluorophenyl)-3-[1-[2-(2-imidazolidinon-1-yl)ethyl]-4-piperidyl]-1H-indole], the ED50 on DA D-2 was more than 42 µmol/kg; at 5-HT2 [2] (po, 24 h, read-out: Quipazine inhibition ED50, 24h (po)), 0.04 µmol/kg; at 5-HT2 [2] (setting [8]) it was 0.12 µmol/kg. Further, the IC50 in [1] is 0.0035 µM.
For the molecule `Cc1ccc2c(N3CCN(CCN4CCN(C(C)C)C4=O)CC3)cn(-c3ccc(F)cc3)c2c1` [Compound 6b, 1-(4-fluorophenyl)-6-methyl-3-[4-[2-[3-(2-propyl)-2-imidazolidinon-1-yl]ethyl]-1-piperazinyl]-1H-indole], the results for the IC50 (at α1 adrenoceptors; in [1]; on dopamine D-2 receptors) were 0.076 µM, 0.0027 µM and 0.18 µM, respectively. The ED50 at 5-HT2 [2] (setting [8]) was found to be 0.04 µmol/kg.
For `Cc1ccc2c(C3CCN(CCN4CCN(C(C)C)C4=O)CC3)cn(-c3ccccc3)c2c1` [Compound 15a], in that order: 0.12 µM, 0.002 µM, 0.5 µM and 0.01 µmol/kg.
For `CC(C)N1CCN(CCN2CCC(c3cn(-c4ccccc4F)c4cc(Cl)ccc34)CC2)C1=O` [Compound 15j, 6-chloro-1-(2-fluorophenyl)-3-[1-[2-[3-(2-propyl)-2-imidazolidinon-1-yl]ethyl]-4-piperidyl]-1H-indole], in that order: 0.12 µM, 0.0037 µM, 0.3 µM and 0.08 µmol/kg.
Turning to `Cc1ccc2c(c1)N(c1ccc(F)cc1)CC2C1CCN(CCN2CCN(C(C)C)C2=O)CC1` (centres unmarked) [Compound 20a, 1-(4-fluorophenyl)-6-methyl-3-[1-[2-[3-(2-propyl)-2-imidazolidinon-1-yl]ethyl]-4-piperidyl]-2,3-dihydro-1H-indole], the IC50 in assay [1] was 0.0053 µM; on dopamine D-2 receptors, 0.18 µM. The ED50 on 5-HT2 [2] (setting [8]) was found to be 0.49 µmol/kg.
In the case of `CN(C)CCSc1nc2ccccc2cc1-c1ccccc1` [ICI 169369, reference compound], the IC50 is 0.3 µM on α1 adrenoceptors, 0.015 µM in assay [1] and 0.49 µM on dopamine D-2 receptors. Besides, at 5-HT2 [2] (setting [8]), the ED50 was more than 3.6 µmol/kg.
For `Cc1nc2sccn2c(=O)c1CCN1CCC(=C(c2ccc(F)cc2)c2ccc(F)cc2)CC1` [ritanserin], the results for the ED50 at 5-HT2 [3], at DA D-2 and at 5-HT2 [2] (setting [9]) were 0.98 µmol/kg, more than 21 µmol/kg and 0.08 µmol/kg, respectively. Moreover, the IC50 on α1 adrenoceptors stood at 0.047 µM. Also, the neuroleptic-induced parkinsonism result in assay [4] is recorded as “relieve neuroleptic-induced parkinsonism”. For the same molecule, in [5], the quality of sleep result is recorded as “improve the quality of sleep”. For the same molecule, the “antidepressant effect and depressive symptoms of schizophrenia” value in assay [6] was “has been shown to be an antidepressant and to improve depressive symptoms of schizophrenia”. Besides, the “effects reminiscent of anxiolytic drug activity” value in assay [7] was “exert effects in an animal test reminiscent of anxiolytic drug activity”.
Consider `O=C1NCCN1CCN1CCC(c2cn(-c3ccc(F)cc3)c3ccc(Cl)cc23)CC1` [sertindole (Lu 23-174), 5-chloro-1-(4-fluorophenyl)-3-[1-[2-(2-imidazolidinon-1-yl)ethyl]-4-piperidyl]-1H-indole, reference compound], for which the IC50 at α1 adrenoceptors was determined as 0.0034 µM. Moreover, the ED50 at DA D-2 was 7.2 µmol/kg; at 5-HT2 [2] (setting [9]), 0.04 µmol/kg. Besides, the “Quipazine inhibition ED50, 24h (po)” value at 5-HT2 [2] (p.o., 24 h before quipazine) came out at 0.04 µmol/kg.
